Results as given in patent US10308620B2, “Muscarinic M1 receptor positive allosteric modulators” (SUVEN LIFE SCIENCES LIMITED, priority 2015, dated 2019).
Counter-ions that a name gives are not always drawn.

Target: recombinant human Muscarinic M1 receptor (Homo sapiens (Human), UniProt P11229)
Assay: Allosteric potency EC50, CHO cells with pCRE-Luc reporter, in presence of EC20 of acetylcholine
Format: cell-based
Details: 4 hours
Procedure: Determination of Allosteric Potency EC50 Values for Muscarinic M1 Receptor:
A stable CHO cell line expressing recombinant human Muscarinic M1 receptor and pCRE-Luc reporter system was used for cell-based assay. The assay offers a non-radioactive based approach to determine binding of a compound to GPCRs. In this specific assay, the level of intracellular cyclic AMP which is modulated by activation or inhibition of the receptor is measured. The recombinant cells harbor luciferase reporter gene under the control of cAMP response element.
The above cells were grown in 96 well clear bottom white plates in Hams F12 medium containing 10% fetal bovine serum (FBS). Prior to the addition of compounds or standard agonist, cells were serum starved overnight. Increasing concentrations of test compounds were added along with EC20 of acetylcholine in OptiMEM medium to the cells. The incubation was continued at 37° C. in CO2 incubator for 4 hours. Medium was removed and cells were washed with phosphate buffered saline. The cells were lysed and luciferase activity was measured in a Luminometer. Luminescence units were plotted against the compound concentrations using Graphpad software. EC50 values of the compounds were defined as the concentration required in stimulating the luciferase activity by 50% in presence of EC20 of acetylcholine.

Sequence of recombinant human Muscarinic M1 receptor (P11229 whole entry): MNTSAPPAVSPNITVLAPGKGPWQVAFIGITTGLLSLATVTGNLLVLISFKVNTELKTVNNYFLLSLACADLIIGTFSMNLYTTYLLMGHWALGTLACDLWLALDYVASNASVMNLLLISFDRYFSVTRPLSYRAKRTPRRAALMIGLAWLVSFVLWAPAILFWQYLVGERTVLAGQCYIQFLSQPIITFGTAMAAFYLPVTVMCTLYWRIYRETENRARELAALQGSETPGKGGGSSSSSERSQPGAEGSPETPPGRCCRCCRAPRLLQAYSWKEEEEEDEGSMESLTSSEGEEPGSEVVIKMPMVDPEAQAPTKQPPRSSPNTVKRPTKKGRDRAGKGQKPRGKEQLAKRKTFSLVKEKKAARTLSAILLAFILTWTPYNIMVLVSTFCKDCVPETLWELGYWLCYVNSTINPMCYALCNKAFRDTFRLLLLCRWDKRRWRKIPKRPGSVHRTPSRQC

| SMILES | EC50 [nM] |
| --- | --- |
| COc1ccc(CN2C=C(C(=O)NCC(C)(C)O)Oc3ccccc32)cc1 [Example 6, N-(2-Hydroxy-2-methylpropyl)-4-(4-methoxybenzyl)-4H-benzo[1,4]oxazine-2-carboxamide] | 1510 |
| O=C(NC1CCNCC1F)C1=CN(Cc2ccccc2F)c2cccc(F)c2O1 (centres unmarked) [Example 73, N-(3-Fluoropiperidin-4-yl)-4-(2-fluorobenzyl)-8-fluoro-4H-benzo[1,4]oxazine-2-carboxamide hydrochloride] | 2370 |
| O=C(N[C@H]1CCCC[C@@H]1O)C1=CN(Cc2cccc(F)c2)c2ccccc2S1 [Example 86, N-(cis-1S,2S-2-Hydroxycyclohexyl)-4-(3-fluorobenzyl)-4H-benzo[1,4]thiazine-2-carboxamide] | 936 |
| O=C(N[C@H]1CCCC[C@@H]1O)C1=CN(Cc2ccc(F)cc2)c2ncccc2O1 [Example 35, N-(cis-1S,2S-2-Hydroxycyclohexyl)-4-(4-fluorobenzyl)-4H-pyrido[3,2-b][1,4]oxazine-2-carboxamide] | 1580 |
| O=C(N[C@H]1CCCC[C@@H]1O)C1=CN(Cc2cccc(F)c2)c2ccccc2[S+]1[O-] (stereo partly drawn) [Example 95, N-(cis-1S,2S-2-Hydroxycyclohexyl)-4-{3-fluorobenzyl}-1-oxo-4H-benzo[1,4]thiazine-2-carboxamide] | 1520 |
| O=C(Nc1ccccc1CO)C1=CN(Cc2ccccc2F)c2ccccc2O1 [Example 43, N-(2-Hydroxymethylphenyl)-4-(2-fluorobenzyl)-4H-benzo[1,4]oxazine-2-carboxamide] | 1620 |
| O=C(N[C@H]1CCCC[C@@H]1O)C1=CN(Cc2ccc(Cl)c(Cl)c2)c2ccccc2O1 [Example 26, N-(cis-1S, 2S-2-Hydroxycyclohexyl)-4-(3,4-dichlorobenzyl)-4H-benzo[1,4]oxazine-2-carboxamide] | 159 |
| O=C(N[C@H]1CCCC[C@@H]1O)C1=CN(Cc2cccc(F)c2)c2cccnc2O1 [Example 36, N-(cis-1S,2S-2-Hydroxycyclohexyl)-1-(3-fluorobenzyl)-1H-pyrido[2,3-b][1,4]oxazine-3-carboxamide] | 1540 |
| O=C(N[C@@H]1CCC[C@H]1O)C1=CN(Cc2ccccc2F)c2ccccc2O1 [Example 40, N-(trans-1R,2R-2-Hydroxycyclopentyl)-4-(2-fluorobenzyl)-4H-benzo[1,4]oxazine-2-carboxamide] | 1530 |
| O=C(N[C@H]1CCCC[C@@H]1O)C1=CN(Cc2ccccn2)c2c(F)cccc2O1 [Example 56, N-(cis-1S,2S-2-Hydroxycyclohexyl)-4-(pyridin-2-ylmethyl)-5-fluoro-4H-benzo[1,4]oxazine-2-carboxamide] | 1480 |
| O=C(N[C@H]1CCCC[C@@H]1O)C1=CN(Cc2cccc(F)c2F)c2cccc(F)c2O1 [Example 29, N-(cis-1S,2S-2-Hydroxycyclohexyl)-4-(2,3-difluorobenzyl)-8-fluoro-4H-benzo[1,4]oxazine-2-carboxamide] | 140 |
| CC(C)C(CO)NC(=O)C1=CN(Cc2ccccc2F)c2cccc(F)c2O1 (centres unmarked) [Example 47, N-(1-Hydroxymethyl-2-methylpropyl)-4-(2-fluorobenzyl)-8-fluoro-4H-benzo[1,4]oxazine-2-carboxamide] | 1320 |
| CC(C)(O)CNC(=O)C1=CN(Cc2ccc(F)cc2)c2ccccc2O1 [Example 14, N-(2-Hydroxy-2-methylpropyl)-4-(4-fluorobenzyl)-4H-benzo[1,4]oxazine-2-carboxamide] | 1360 |
| Cc1ncccc1CN1C=C(C(=O)N[C@H]2CCCC[C@@H]2O)Oc2ccccc21 [Example 27, N-(cis-1S,2S-2-Hydroxycyclohexyl)-4-(2-methylpyridin-3-ylmethyl)-4H-benzo[1,4]oxazine-2-carboxamide] | 1370 |
| O=C(N[C@H]1CCCC[C@@H]1O)C1=CN(Cc2ccccc2)c2ccccc2[S+]1[O-] (stereo partly drawn) [Example 94, N-(cis-1S,2S-2-Hydroxycyclohexyl)-4-benzyl-1-oxo-4H-benzo[1,4]thiazine-2-carboxamide] | 1400 |
| O=C(N[C@H]1CCCC[C@@H]1O)C1=CN(Cc2ccc(Cl)cc2Cl)c2ccccc2O1 [Example 28, N-(cis-1S, 2S-2-Hydroxycyclohexyl)-4-(2,4-dichlorobenzyl)-4H-benzo[1,4]oxazine-2-carboxamide] | 250 |
| O=C(N[C@H]1CCCC[C@@H]1O)C1=CN(Cc2ccccc2Cl)c2ccccc2O1 [Example 41, N-(cis-1S, 2S-2-Hydroxycyclohexyl)-4-(2-chlorobenzyl)-4H-benzo[1,4]oxazine-2-carboxamide] | 168 |
| O=C(N[C@H]1CCCC[C@@H]1O)C1=CN(Cc2ccncc2F)c2ccccc2O1 [Example 34, N-(cis-1S,2S-2-Hydroxycyclohexyl)-4-(3-fluoropyridin-4-ylmethyl)-4H-benzo[1,4]oxazine-2-carboxamide] | 1520 |
| COc1cc(CN2C=C(C(=O)NCC(C)(C)O)Oc3ccccc32)ccn1 [Example 12, N-(2-Hydroxy-2-methylpropyl)-4-(2-methoxypyridin-4-ylmethyl)-4H-benzo[1,4]oxazine-2-carboxamide] | 1510 |

Now from value to compound:

| EC50 [nM] | SMILES |
| --- | --- |
| 412 | O=C(NC1CCNCC1O)C1=CN(Cc2ccccc2F)c2ccccc2O1 (centres unmarked) [Example 76, N-(3-Hydroxypiperidin-4-yl)-4-(2-fluorobenzyl)-4H-benzo[1,4]oxazine-2-carboxamide trifluoroacetate] |
| 514 | O=C(N[C@H]1CCCC[C@@H]1O)C1=CN(Cc2ccnc(Cl)c2)c2ccccc2O1 [Example 24, N-(cis-1S,2S-2-Hydroxycyclohexyl)-4-(2-chloropyridin-4-ylmethyl)-4H-benzo[1,4]oxazine-2-carboxamide] |
| 1010 | Cn1ccc(-c2cc(CN3C=C(C(=O)N[C@H]4CCCC[C@@H]4O)Oc4ccccc43)ccn2)n1 [Example 59, N-(cis-1S,2S-2-Hydroxycyclohexyl)-4-[12-(1-methyl-1H-pyrazol-3-yl)-pyridin-4-ylmethyl]-4H-benzo[1,4]oxazine-2-carboxamide] |
| 686 | O=C(N[C@@H]1CCC[C@H]1O)C1=CN(Cc2cccc(F)c2F)c2cccc(F)c2O1 [Example 42, N-(trans-1R,2R-2-Hydroxycyclopentyl)-4-(2,3-difluorobenzyl)-8-fluoro-4H-benzo[1,4]oxazine-2-carboxamide] |
| 1350 | O=C(N[C@H]1CCCC[C@@H]1O)C1=CN(Cc2ccnc(-c3ccccc3)c2)c2ccccc2O1 [Example 52, N-(cis-1S,2S-2-Hydroxycyclohexyl)-4-(2-phenylpyridin-4-ylmethyl)-4H-benzo[1,4]oxazine-2-carboxamide] |
| 141 | O=C(N[C@H]1CCCC[C@@H]1O)C1=CN(Cc2ccc(Cl)nc2)c2ccccc2S1 [Example 91, N-(cis-1S,2S-2-Hydroxycyclohexyl)-4-{2-chloropyridin-5-ylmethyl}-4H-benzo[1,4]thiazine-2-carboxamide] |
| 160 | O=C(NC1CCNCC1O)C1=CN(Cc2cccc(F)c2F)c2cccc(F)c2O1 (centres unmarked) [Example 75, N-(3-Hydroxypiperidin-4-yl)-4-(2,3-difluorobenzyl)-8-fluoro-4H-benzo[1,4]oxazine-2-carboxamide trifluoroacetate] |
| 1340 | Cc1cc(-c2cc(CN3C=C(C(=O)N[C@H]4CCCC[C@@H]4O)Oc4ccccc43)ccn2)cnc1F [Example 58, N-(cis-1S,2S-2-Hydroxycyclohexyl)-4-(6′-fluoro-5′-methyl-[2,3′]bipyridinyl-4-ylmethyl)-4H-benzo[1,4]oxazine-2-carboxamide] |
| 591 | COc1ccc(CN2C=C(C(=O)N[C@H]3CCCC[C@@H]3O)Oc3ccccc32)cn1 [Example 15, N-(cis-1S,2S-2-Hydroxycyclohexyl)-4-(2-methoxypyridin-5-ylmethyl)-4H-benzo[1,4]oxazine-2-carboxamide] |
| 460 | O=C(N[C@H]1CCCC[C@@H]1O)C1=CN(Cc2ccc(F)cc2)c2ccccc2S1 [Example 89, N-(cis-1S,2S-2-Hydroxycyclohexyl)-4-{4-fluorobenzyl}-4H-benzo[1,4]thiazine-2-carboxamide] |
| 143 | O=C(N[C@H]1CCCC[C@@H]1O)C1=CN(Cc2ccccc2)c2cccc(F)c2O1 [Example 48, N-(cis-1S,2S-2-Hydroxycyclohexyl)-4-benzyl-8-fluoro-4H-benzo[1,4]oxazine-2-carboxamide] |
| 1150 | O=C(N[C@H]1CCCC[C@@H]1O)C1=CN(Cc2ccccc2F)c2ncccc2O1 [Example 3, N-(cis-1S,2S-2-Hydroxycyclohexyl)-4-{2-fluorobenzyl}-4H-pyrido[3,2-b][1,4]oxazine-2-carboxamide] |
| 353 | O=C(N[C@H]1CCCC[C@@H]1O)C1=CN(Cc2cccnc2)c2ccccc2O1 [Example 22, N-(cis-1S,2S-2-Hydroxycyclohexyl)-4-(pyridin-3-ylmethyl)-4H-benzo[1,4]oxazine-2-carboxamide] |
| 828 | O=C(N[C@H]1CCCC[C@@H]1O)C1=CN(Cc2ccccc2F)c2c(F)cccc2O1 [Example 55, N-(cis-1S,2S-2-Hydroxycyclohexyl)-4-(2-fluorobenzyl)-5-fluoro-4H-benzo[1,4]oxazine-2-carboxamide] |
| 230 | O=C(N[C@H]1CCCC[C@@H]1O)C1=CN(Cc2ccnc(-c3ccccc3)c2)c2cccc(F)c2O1 [Example 53, N-(cis-1S,2S-2-Hydroxycyclohexyl)-4-(2-phenylpyridin-4-ylmethyl)-8-fluoro-4H-benzo[1,4]oxazine-2-carboxamide] |
| 955 | O=C(N[C@H]1CCCC[C@@H]1O)C1=CN(Cc2ccccc2)c2ncccc2O1 [Example 30, N-(cis-1S, 2S-2-Hydroxycyclohexyl)-4-benzyl-4H-pyrido[3,2-b][1,4]oxazine-2-carboxamide] |
